The source of these data is US8691838B2, “Heterocycles as protein kinase inhibitors” (Amgen Inc., priority 2008, dated 2014).

SMILES strings stand for the structures.

What is called Ki is the equilibrium dissociation constant of an inhibitor or competing ligand from its target. Low readings indicate higher affinity, high ones lower affinity.

In the test the target is c-Met (Homo sapiens, UniProt P08581). Nature of the test: c-Met receptor assay (HTRF kinase assay with GST-cMet (P) enzyme, gastrin substrate). (In TR-FRET formats the signal depends on donor and acceptor labels being close together.)
Sequence of c-Met (P08581 1058-1365): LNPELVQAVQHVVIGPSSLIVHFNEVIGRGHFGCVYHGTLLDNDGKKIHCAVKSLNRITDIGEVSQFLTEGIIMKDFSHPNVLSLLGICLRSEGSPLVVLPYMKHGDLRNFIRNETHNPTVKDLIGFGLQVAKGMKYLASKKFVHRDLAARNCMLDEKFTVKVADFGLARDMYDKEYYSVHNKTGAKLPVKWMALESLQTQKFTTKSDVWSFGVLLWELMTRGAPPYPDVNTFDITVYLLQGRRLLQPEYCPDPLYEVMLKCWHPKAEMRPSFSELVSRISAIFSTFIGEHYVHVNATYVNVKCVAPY

Method: A Kinase reaction Buffer was prepared as follows: 60 mM HEPES pH 7.4; 50 mM NaCl; 20 mM MgCl2; 5 mM MnCl2. When the assay was carried out, the following ingredients were freshly added: 2 mM DTT; 0.05% BSA; 0.1 mM Na3OV4.
Then incubated the plate at RT for 30 min.
KM ATP and KM gastrin for various enzymes were determined by HTRF/^33P labeling and HTRF methods.

Compound `CC(c1ccc2ncccc2c1)n1nnc2c(=O)[nH]ccc21` (racemic) [Example 10, (R/S)-1-(1-(quinolin-6-yl)ethyl)-1H-[1,2,3]triazolo[4,5-c]pyridin-4(5H)-one] returned a Ki of 461 nM.
Consider `O=C1c2c(nnn2Cc2ccc3ncccc3c2)CCN1c1ccccc1` [Example 1, 5-phenyl-3-(quinolin-6-ylmethyl)-6,7-dihydro-3H-[1,2,3]triazolo[4,5-c]pyridin-4(5H)-one], for which affinity was put at a Ki of 366 nM.
The same measure for `Cc1cc(N2CCc3nnn(Cc4ccc5ncccc5c4)c3C2=O)sn1` [Example 2, 5-(3-methylisothiazol-5-yl)-3-(quinolin-6-ylmethyl)-6,7-dihydro-3H-[1,2,3]triazolo[4,5-c]pyridin-4(5H)-one]: 12 nM; for `Cc1cc(N2CCc3nnn([C@@H](C)c4ccc5ncccc5c4)c3C2=O)sn1` [Example 4, (S)-5-(3-methylisothiazol-5-yl)-3-(1-(quinolin-6-yl)ethyl)-6,7-dihydro-3H-[1,2,3]triazolo[4,5-c]pyridin-4(5H)-one]: 8 nM; for `Cc1cc(N2CCc3nnn([C@H](C)c4ccc5ncccc5c4)c3C2=O)sn1` [Example 5, (R)-5-(3-methylisothiazol-5-yl)-3-(1-(quinolin-6-yl)ethyl)-6,7-dihydro-3H-[1,2,3]triazolo[4,5-c]pyridin-4(5H)-one]: 132 nM.
Then `C[C@@H](c1ccc2ncccc2c1)n1nnc2ccn(-c3ccc(Cl)c(C(F)(F)F)c3)c(=O)c21` [Example 29, (S)-5-(4-chloro-3-(trifluoromethyl)phenyl)-3-(1-(quinolin-6-yl)ethyl)-3H-[1,2,3]triazolo[4,5-c]pyridin-4(5H)-one], with 3.4 nM; and `C[C@H](c1ccc2ncccc2c1)n1nnc2ccn(-c3ccc(Cl)c(C(F)(F)F)c3)c(=O)c21` [Example 30, (R)-5-(4-chloro-3-(trifluoromethyl)phenyl)-3-(1-(quinolin-6-yl)ethyl)-3H-[1,2,3]triazolo[4,5-c]pyridin-4(5H)-one], with 473 nM.
The same measure for `C[C@@H](c1ccc2ncccc2c1)n1nnc2ccn(Cc3ccccc3)c(=O)c21` [Example 31, (S)-5-benzyl-3-(1-(quinolin-6-yl)ethyl)-3H-[1,2,3]triazolo[4,5-c]pyridin-4(5H)-one]: 1090 nM; for `C[C@H](c1ccc2ncccc2c1)n1nnc2ccn(Cc3ccccc3)c(=O)c21` [Example 32, (R)-5-benzyl-3-(1-(quinolin-6-yl)ethyl)-3H-[1,2,3]triazolo[4,5-c]pyridin-4(5H)-one]: 1310 nM.
